Experimental data published in patent publication US9546150B2, “Substituted quinazolin-4-ones for inhibiting ubiquitin specific protease 7” (HYBRIGENICS SA, priority 2011, dated 2017).
pIC50: −log10 of the molar value.

Columns and labels:
USP8 = molecular target: T1, USP8 (Homo sapiens, UniProt P40818); assay: USP8 activity assay, Ub-AMC substrate; type: biochemical; design: His tag (pFastBac-HT vector); made in house; host or cells: Sf9 or High Five insect cells, baculovirus; details: UbAMC substrate 300 nM, USP8 1.36 nM
T1 sequence (P40818 1-1118): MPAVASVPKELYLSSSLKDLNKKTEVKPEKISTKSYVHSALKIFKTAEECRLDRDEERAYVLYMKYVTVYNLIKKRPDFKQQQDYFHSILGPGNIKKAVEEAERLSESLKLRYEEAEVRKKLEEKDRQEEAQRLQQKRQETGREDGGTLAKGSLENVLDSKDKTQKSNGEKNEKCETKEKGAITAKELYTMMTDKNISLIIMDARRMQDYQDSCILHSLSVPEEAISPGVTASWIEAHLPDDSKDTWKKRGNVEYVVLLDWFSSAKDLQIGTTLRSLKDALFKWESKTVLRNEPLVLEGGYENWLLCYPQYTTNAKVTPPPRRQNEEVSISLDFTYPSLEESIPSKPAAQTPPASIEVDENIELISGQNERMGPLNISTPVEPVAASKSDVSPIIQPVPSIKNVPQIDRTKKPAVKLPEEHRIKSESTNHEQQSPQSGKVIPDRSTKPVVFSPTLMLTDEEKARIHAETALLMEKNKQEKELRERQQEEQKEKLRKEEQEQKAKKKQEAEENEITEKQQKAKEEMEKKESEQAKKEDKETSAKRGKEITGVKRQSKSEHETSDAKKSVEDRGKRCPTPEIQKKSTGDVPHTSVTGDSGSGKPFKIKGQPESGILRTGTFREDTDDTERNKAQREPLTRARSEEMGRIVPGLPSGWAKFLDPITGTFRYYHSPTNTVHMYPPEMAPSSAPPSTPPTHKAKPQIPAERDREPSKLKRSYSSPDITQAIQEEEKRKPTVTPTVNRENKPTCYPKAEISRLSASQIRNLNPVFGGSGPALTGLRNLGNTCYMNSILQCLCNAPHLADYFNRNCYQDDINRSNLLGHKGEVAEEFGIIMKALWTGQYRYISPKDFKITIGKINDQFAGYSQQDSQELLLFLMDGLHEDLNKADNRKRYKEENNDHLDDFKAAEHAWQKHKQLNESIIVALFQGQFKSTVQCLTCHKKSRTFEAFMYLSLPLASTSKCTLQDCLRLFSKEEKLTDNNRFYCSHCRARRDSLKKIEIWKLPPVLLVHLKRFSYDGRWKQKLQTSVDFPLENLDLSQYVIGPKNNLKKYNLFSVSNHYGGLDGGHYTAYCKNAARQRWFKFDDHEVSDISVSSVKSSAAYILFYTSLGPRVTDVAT
Description: USP8 was diluted in USP buffer (50 mM Tris HCl; 0.5 mM EDTA; 5 mM DTT; 0.01% Triton X-100; Bovine Serum Albumin 0.05 mg·ml^−1 pH8.8). Compounds stocks (100 mM) were stored at −20° C. in DMSO.
Reactions were performed as duplicates in Black 384 well plates (small volume microplates; Greiner; 10 μl final reaction volume). The substrate concentration for USP8 was 300 nM Ub-AMC (Boston Biochem). […] The concentrations were determined in order to perform specificity assays under initial velocities at fixed substrate concentration. Compounds were pre-incubated with enzymes for 30 minutes at 25° C. Reactions were initiated by addition of substrate to the plates containing the enzymes (+/− compounds) diluted in assay buffer. Reactions were incubated for 60 minutes at 37° C. Reactions were stopped by adding acetic acid (100 mM final). Readings were performed on a Pherastar Fluorescent Reader (BMG). λ Emission 380 nm: λ Excitation=460 nm.

UCH-L1 = molecular target: T2, UCH-L1 (Homo sapiens, UniProt P09936); assay: UCH-L1 activity assay, Ub-AMC substrate; type: biochemical; details: UbAMC substrate 300 nM, UCH-L1 2.5 nM
T2 sequence (P09936 1-223): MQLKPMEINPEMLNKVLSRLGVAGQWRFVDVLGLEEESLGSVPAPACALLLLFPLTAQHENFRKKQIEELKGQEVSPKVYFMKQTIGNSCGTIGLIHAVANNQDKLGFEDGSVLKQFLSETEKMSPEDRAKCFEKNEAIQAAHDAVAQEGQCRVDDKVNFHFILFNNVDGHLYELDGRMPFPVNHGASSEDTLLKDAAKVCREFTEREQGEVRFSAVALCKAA
Description: UCH-L1 was diluted in USP buffer (50 mM Tris HCl; 0.5 mM EDTA; 5 mM DTT (Dithiothreitol); 0.01% Triton X-100; Bovine Serum Albumin 0.05 mg·ml^−1 pH7.6). Compounds stocks (100 mM) were stored at −20° C. in DMSO. Compounds were tested at different concentrations: from 200 μM to 91 nM.
Reactions were performed as duplicates in Black 384 well plates (small volume microplates; Greiner; 10 μl final reaction volume). The substrate concentration for UCH-L1 was 300 nM Ub-AMC (Boston Biochem). The concentration of the enzyme (UCH-L1) in specificity assays was 2.5 nM. The concentrations were determined in order to perform specificity assays under initial velocities at fixed substrate concentration. Compounds were pre-incubated with enzymes for 30 minutes at 25° C. Reactions were initiated by addition of substrate to the plates containing the enzymes (+/− compounds) diluted in assay buffer. Reactions were incubated for 60 minutes at 37° C. Reactions were stopped by adding acetic acid (100 mM final). Readings were performed on a Pherastar Fluorescent Reader (BMG). λ Emission 380 nm; λ Excitation=460 nm.

Row | SMILES | pIC50 (USP8) | pIC50 (UCH-L1)
1 | O=C(CCc1ccccc1)N1CCC(O)(Cn2cnc3ccccc3c2=O)CC1 [Example 1, 3-{[4-hydroxy-1-(3-phenylpropanoyl)piperidin-4-yl]methyl}-3,4-dihydroquinazolin-4-one] | < 3.70 | < 3.70
2 | O=C(CCc1ccccc1)N1CCC(O)(Cn2cnc3cc(Cl)ccc3c2=O)CC1 [Example 2, 7-chloro-3-{[4-hydroxy-1-(3-phenylpropanoyl)piperidin-4-yl]methyl}-3,4-dihydroquinazolin-4-one] | – | < 3.70
3 | O=C(CCC1CCCC1)N1CCC(O)(Cn2cnc3ccccc3c2=O)CC1 [Example 3, 3-{[1-(3-cyclopentylpropanoyl)-4-hydroxypiperidin-4-yl]methyl}-3,4-dihydroquinazolin-4-one] | < 3.70 | < 3.70
4 | O=C(CCC1CCCC1)N1CCC(O)(Cn2cnc3cc(Cl)ccc3c2=O)CC1 [Example 4, 7-chloro-3-{[1-(3-cyclopentylpropanoyl)-4-hydroxypiperidin-4-yl]methyl}-3,4-dihydroquinazolin-4-one] | < 3.70 | < 3.70
5 | CC(Cc1cccs1)C(=O)N1CCC(O)(Cn2cnc3ccccc3c2=O)CC1 (stereo not shown) [Example 5, 3-({4-hydroxy-1-[2-methyl-3-(thiophen-2-yl)propanoyl]piperidin-4-yl}methyl)-3,4-dihydroquinazolin-4-one] | < 3.70 | < 3.70
6 | CC(C)C(=O)N1CCC(O)(Cn2cnc3ccccc3c2=O)CC1 [Example 6, 3-{[4-hydroxy-1-(2-methylpropanoyl)piperidin-4-yl]methyl}-3,4-dihydroquinazolin-4-one] | < 3.70 | < 3.70
7 | COc1cc2ncn(CC3(O)CCN(C(=O)C(C)C)CC3)c(=O)c2cc1OC [Example 7, 3-{[4-hydroxy-1-(2-methylpropanoyl)piperidin-4-yl]methyl}-6,7-dimethoxy-3,4-dihydroquinazolin-4-one] | < 3.70 | < 3.70
8 | CCC(CC)C(=O)N1CCC(O)(Cn2cnc3cc(Cl)ccc3c2=O)CC1 [Example 9, 7-chloro-3-{[1-(2-ethylbutanoyl)-4-hydroxypiperidin-4-yl]methyl}-3,4-dihydroquinazolin-4-one] | < 3.70 | < 3.70
9 | COc1ccccc1CCC(=O)N1CCC(O)(Cn2cnc3ccccc3c2=O)CC1 [Example 10, 3-({4-hydroxy-1-[3-(2-methoxyphenyl)propanoyl]piperidin-4-yl}methyl)-3,4-dihydroquinazolin-4-one] | < 3.70 | < 3.70
10 | CC(Cc1cccs1)C(=O)N1CCC(O)(Cn2cnc3cc(Cl)ccc3c2=O)CC1 (stereo not shown) [Example 11, 7-chloro-3-({4-hydroxy-1-[2-methyl-3-(thiophen-2-yl)propanoyl]piperidin-4-yl}methyl)-3,4-dihydroquinazolin-4-one] | < 3.70 | < 3.70
11 | O=C(CCc1cccs1)N1CCC(O)(Cn2cnc3ccccc3c2=O)CC1 [Example 12, 3-({4-hydroxy-1-[3-(thiophen-2-yl)propanoyl]piperidin-4-yl}methyl)-3,4-dihydroquinazolin-4-one] | < 3.70 | < 3.70
12 | CC(Cc1ccccc1)C(=O)N1CCC(O)(Cn2cnc3ccccc3c2=O)CC1 (stereo not shown) [Example 13, 3-{[1-(2-benzylpropanoyl)-4-hydroxypiperidin-4-yl]methyl}-3,4-dihydroquinazolin-4-one] | < 3.70 | < 3.70
13 | CC(Cc1ccccc1)C(=O)N1CCC(O)(Cn2cnc3cc(Cl)ccc3c2=O)CC1 (stereo not shown) [Example 14, 3-{[1-(2-benzylpropanoyl)-4-hydroxypiperidin-4-yl]methyl}-7-chloro-3,4-dihydroquinazolin-4-one] | < 3.70 | < 3.70
